Assay [1] addresses EGFR (human) (UniProt P00533). The settings on record: a431.
Assay [2] has as its target EGFR (human) (UniProt P00533). The settings on record: A431.

For orientation: IC50 means the concentration needed to halve the response being measured. Read a high IC50 as a need for much substance.

EGFR (human), sequence (P00533 whole entry, looked up): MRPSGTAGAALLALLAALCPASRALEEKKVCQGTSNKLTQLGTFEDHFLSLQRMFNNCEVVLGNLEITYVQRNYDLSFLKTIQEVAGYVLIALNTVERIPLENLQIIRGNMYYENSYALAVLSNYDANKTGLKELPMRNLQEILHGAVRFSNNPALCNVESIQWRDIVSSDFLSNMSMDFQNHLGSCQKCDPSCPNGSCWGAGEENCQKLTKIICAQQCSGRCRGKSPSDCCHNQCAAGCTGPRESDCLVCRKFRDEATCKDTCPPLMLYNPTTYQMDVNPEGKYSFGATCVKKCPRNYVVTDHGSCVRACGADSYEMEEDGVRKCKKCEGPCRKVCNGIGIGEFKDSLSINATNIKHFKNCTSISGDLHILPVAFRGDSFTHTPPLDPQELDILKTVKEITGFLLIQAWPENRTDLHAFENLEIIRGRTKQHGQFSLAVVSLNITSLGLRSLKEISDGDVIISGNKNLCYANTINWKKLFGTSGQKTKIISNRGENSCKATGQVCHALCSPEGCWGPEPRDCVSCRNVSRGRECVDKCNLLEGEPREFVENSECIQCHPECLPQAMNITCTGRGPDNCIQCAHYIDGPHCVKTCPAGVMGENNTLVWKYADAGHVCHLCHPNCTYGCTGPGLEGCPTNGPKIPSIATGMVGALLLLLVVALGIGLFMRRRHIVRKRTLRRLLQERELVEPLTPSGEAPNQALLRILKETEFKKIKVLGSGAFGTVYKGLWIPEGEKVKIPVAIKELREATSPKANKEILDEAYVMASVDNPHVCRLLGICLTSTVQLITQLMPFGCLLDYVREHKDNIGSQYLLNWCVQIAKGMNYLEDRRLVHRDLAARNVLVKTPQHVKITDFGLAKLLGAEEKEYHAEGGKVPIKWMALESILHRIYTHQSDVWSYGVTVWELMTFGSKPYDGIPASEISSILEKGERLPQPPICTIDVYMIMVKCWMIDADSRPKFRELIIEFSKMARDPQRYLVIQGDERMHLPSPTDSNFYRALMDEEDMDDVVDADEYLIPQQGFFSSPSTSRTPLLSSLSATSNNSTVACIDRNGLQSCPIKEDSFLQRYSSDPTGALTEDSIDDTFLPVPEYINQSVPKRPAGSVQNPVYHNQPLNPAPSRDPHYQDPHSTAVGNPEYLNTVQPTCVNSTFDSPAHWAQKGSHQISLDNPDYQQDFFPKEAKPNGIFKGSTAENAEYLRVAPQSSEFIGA

Regarding `Cc1cc2ncnc(Nc3ccc(OCc4ccccc4)cc3)c2cc1C`, the IC50 was over 50 µM on EGFR (human) [1] and over 30 µM at EGFR (human) [2].

As for `COc1cc2nccc(Nc3ccc(N4C(=O)c5ccc(Cl)cc5C4=O)c(C)c3)c2cc1OC`, the IC50 is over 50 µM against EGFR (human) [1] and 50 µM at EGFR (human) [2].

Regarding `COc1ccc2ncnc(Nc3ccc(OCc4ccccc4)cc3)c2c1`, the IC50 against EGFR (human) [1] came to 12 µM; against EGFR (human) [2], 15 µM.

As to `COc1cc2ncnc(Nc3ccc(OCc4ccccc4)c(OC)c3)c2cc1OC`, the 50% inhibitory concentration (IC50) against EGFR (human) [1] came out at 6.9 µM; against EGFR (human) [2], 1.6 µM.

For `c1ccc(Oc2ccc(Nc3ccnc4ccccc34)cc2)cc1`, the IC50 on EGFR (human) [1] was 31 µM; against EGFR (human) [2], over 50 µM.

As for `O=[N+]([O-])c1ccc2ncnc(Nc3ccc(Oc4ccccc4)cc3)c2c1`, the IC50 at EGFR (human) [1] and on EGFR (human) [2] was over 50 µM in each case.

Take `COc1cc2nccc(Nc3ccc(OCc4ccccc4)cc3)c2cc1OC`: the IC50 against EGFR (human) [1] and at EGFR (human) [2] was over 50 µM in each case.

In the case of `c1csc(COc2ccc(Nc3ncnc4ccccc34)cc2)c1`, the IC50 on EGFR (human) [1] and against EGFR (human) [2] was over 50 µM each time.

Consider `c1ccc(COc2ccc(Nc3ccnc4ccccc34)cc2)cc1`, for which the IC50 at EGFR (human) [1] and on EGFR (human) [2] was over 50 µM each time.

For `COc1cc2ncnc(Nc3ccc(Nc4ccccc4)cc3)c2cc1OC`, the IC50 at EGFR (human) [1] was over 50 µM; at EGFR (human) [2], 15 µM.

In the case of `c1ccc(COc2cccc(Nc3ncnc4ccccc34)c2)cc1`, the half-inhibitory concentration (IC50) against EGFR (human) [1] was 50 µM; against EGFR (human) [2], over 50 µM.

`Brc1ccc2ncnc(Nc3ccc(OCc4ccccc4)cc3)c2c1`: the IC50 stood at 29 µM against EGFR (human) [1] and 10 µM against EGFR (human) [2].

Take `Clc1ccc2c(Nc3ccc(OCc4ccccc4)cc3)ncnc2c1`: the IC50 is 50 µM against EGFR (human) [1] and over 30 µM against EGFR (human) [2].

On to `c1ccc(COc2ccc(Oc3ncnc4ccccc34)cc2)cc1`, for which the IC50 at EGFR (human) [1] and against EGFR (human) [2] was over 50 µM throughout.

With `COc1cc2ncnc(Nc3ccc(Oc4ccccc4)cc3)c2cc1OC`, the IC50 at EGFR (human) [1] is 30 µM; on EGFR (human) [2], 8 µM.

For `COc1cc2ncnc(Nc3ccc(OCc4ccccc4)cc3)c2cc1OC`, the IC50 against EGFR (human) [1] came to 50 µM; at EGFR (human) [2] it was 5 µM.

As to `COc1cccc2ncnc(Nc3ccc(OCc4ccccc4)cc3)c12`, the IC50 against EGFR (human) [1] is 28 µM; on EGFR (human) [2], 11 µM.

For the compound `COc1ccc2c(Nc3ccc(OCc4ccccc4)cc3)ncnc2c1`, the IC50 against EGFR (human) [1] was over 50 µM; at EGFR (human) [2] it was 65 µM.

The values above are taken from the Kinase Knowledgebase extract (Sharma et al. 2016).
